Measurements reported in publication PMC2727956, “Production of the Novel Two-Peptide Lantibiotic Lichenicidin by Bacillus licheniformis DSM 13” (PLoS ONE, 2009).
Where no end group is shown, it is not given here.

Tests used:
[1] = tested on: S. aureus ATCC 33592 (MRSA); assay: Minimum inhibitory concentrations on agar plates (spotted serial dilutions); format: cell-based, Staphylococcus aureus; conditions: S. aureus ATCC 33592 (MRSA) versus S. aureus SG511 (MSSA); serial dilutions in half-concentrated Müller-Hinton broth, 10 µl spotted on Müller Hinton agar lawn, overnight; lichenicidin as isopropanol wash extract
Procedure: (§1) For the comparison of the antibacterial efficacy of lichenicidin to other lantibiotics, Pep5 [52] and nisin [53] were purified as described previously, and mersacidin was obtained from Sanofi-Aventis (Frankfurt, Germany). Serial dilutions of the lantibiotics and the isopropanol wash extract were prepared in half-concentrated Müller-Hinton broth. Fresh colonies of all indicator organisms were used to prepare cell suspensions of about 5×10^6 colony forming units per ml which were employed to inoculate Müller Hinton agar plates. Ten µl of the lantibiotic solutions were spotted onto the indicator plates. The highest dilution yielding a clear inhibition zone on the lawn was detected by visual inspection after incubation overnight.

[2] = tested on: S. aureus LT440/09 (cMRSA); assay: as above; format: cell-based, Staphylococcus aureus; conditions: S. aureus LT440/09 (cMRSA) versus S. aureus SG511 (MSSA); serial dilutions in half-concentrated Müller-Hinton broth, 10 µl spotted on Müller Hinton agar lawn, overnight; lichenicidin as isopropanol wash extract
Procedure: as §1

mersacidin: lantibiotic obtained from Sanofi-Aventis (CTFTLPGGGGVCTLTSECIC; also: lantibiotic: thioether bridges, places not given here; UniProt P43683 49-68, looked up)
minimum inhibitory concentration on agar plates, fold higher than against S. aureus SG511 [1]: 4.8±1.6 fold
minimum inhibitory concentration on agar plates, fold higher than against S. aureus SG511 [2]: 4.7±1.6 fold

nisin
minimum inhibitory concentration on agar plates, fold higher than against S. aureus SG511 [1]: 1.83±0.41 fold
minimum inhibitory concentration on agar plates, fold higher than against S. aureus SG511 [2]: 2.67±1.03 fold
